According to patent publication US20240246913A1, “2-CARBOXYL-INDOLE INHIBITORS OF METALLO-BETA-LACTAMASES” (Oxford University Innovation Limited, priority 2021, published 2024):
pIC50: −log10 of the molar value. Structures can show the parent of a compound that is named as a salt. Where two headings read alike, the source gives them in different places.

What was measured:
Assay type in all cases: biochemical
IMP-1 = IMP-1 (Serratia marcescens, UniProt P52699); assay: MBL inhibition, FC-5 fluorescence assay, IMP-1; conditions: for IC50: FC-5 cephalosporin substrate, fluorescence, ranges of obtained pIC50, read-out: pIC50 IMP-1 (converted)
Sequence of IMP-1 (P52699 19-246, looked up, species assumed): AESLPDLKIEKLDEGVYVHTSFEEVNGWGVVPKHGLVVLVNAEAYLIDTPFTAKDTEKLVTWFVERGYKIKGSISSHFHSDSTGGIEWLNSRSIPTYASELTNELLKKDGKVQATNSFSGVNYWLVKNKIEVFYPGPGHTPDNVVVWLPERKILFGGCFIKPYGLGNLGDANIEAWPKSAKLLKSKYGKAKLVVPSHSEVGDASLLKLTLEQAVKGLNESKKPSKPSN
Procedure: (§1) Inhibitors were tested using a panel of the clinically relevant B1 MBLs (NDM-1, VIM-1, -2 and IMP-1). Activities were assayed by monitoring the release of a fluorophore following the enzymatic breakdown of the cephalosporin FC-5 (https://pubs.acs.org/doi/abs/10.1021/jm400769b). FC-5 assays were conducted in clear bottomed 384 black well microplates (Greiner); the initial rate of reaction was assessed by monitoring the fluorescence intensity (λex=380 nm and λem=460 nm) using a Pherstar FS (BMG LabTech) plate reader. Initial rates of reaction were determined and dose-response analyses conducted in GraphPad Prism. Dose-response curves were fitted using the log(inhibitor) vs normalized response—variable slope model of GraphPad Prism 12. Each concentration point for routine screening was conducted with 4 intra-plate replicates.

VIM-2 = VIM-2 (Escherichia coli, UniProt Q5U7L7); assay: MBL inhibition, FC-5 fluorescence assay, VIM-2; conditions: for IC50: FC-5 cephalosporin substrate, ranges of obtained pIC50, read-out: pIC50 VIM-2 (converted)
Procedure: as §1

NDM-1 = NDM-1 (Klebsiella pneumoniae, UniProt C7C422); assay: MBL inhibition, FC-5 fluorescence assay, NDM-1; conditions: for IC50: FC-5 cephalosporin substrate, fluorescence, ranges of obtained pIC50, read-out: pIC50 NDM-1 (converted)
Sequence of NDM-1 (C7C422 29-270, looked up, species assumed): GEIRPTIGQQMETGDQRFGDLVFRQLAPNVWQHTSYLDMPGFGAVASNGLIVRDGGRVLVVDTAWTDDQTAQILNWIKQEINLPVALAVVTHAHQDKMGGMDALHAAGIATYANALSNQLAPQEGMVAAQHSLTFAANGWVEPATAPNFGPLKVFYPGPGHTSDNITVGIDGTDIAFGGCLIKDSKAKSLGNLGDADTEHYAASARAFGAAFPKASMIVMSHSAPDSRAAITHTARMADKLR
Procedure: as §1

VIM-1 = VIM-1 (Pseudomonas aeruginosa, UniProt A0A0F7KYQ8); assay: MBL inhibition, FC-5 fluorescence assay, VIM-1; conditions: for IC50: FC-5 cephalosporin substrate, ranges of obtained pIC50, read-out: pIC50 VIM-1 (converted)
Procedure: as §1

| Compound | IC50 (IMP-1) | IC50 (VIM-2) | IC50 (NDM-1) | IC50 (VIM-1) | pIC50 (IMP-1) | pIC50 (VIM-2; pIC50 VIM-2, FC-5 cephalosporin substrate, ranges of obtained pIC50) | pIC50 (NDM-1) | pIC50 (VIM-1; pIC50 VIM-1, FC-5 cephalosporin substrate, ranges of obtained pIC50) |
| --- | --- | --- | --- | --- | --- | --- | --- | --- |
| CC(NC(=O)C[C@H]1CC[C@H](N)CC1)c1cccc2c(-c3ccc(CS(C)(=O)=O)c(F)c3)c(C(=O)O)[nH]c12 (mixture of isomers) [IC-100, 7-[1-[[2-(4-Aminocyclohexyl)acetyl]amino]ethyl]-3-[3-fluoro-4-(methylsulfonylmethyl)phenyl]-1H-indole-2-carboxylic acid] | > 10 nM | 0.1 to 1 nM | > 10 nM | > 10 nM |  |  |  |  |
| CC(CC(=O)NCCc1c[nH]cn1)c1cccc2c(-c3ccc(CS(C)(=O)=O)c(F)c3)c(C(=O)O)[nH]c12 (racemic) [IC-104, 3-[3-Fluoro-4-(methanesulfonylmethyl)phenyl]-7-(1-{[2-(1H-imidazol-4-yl)ethyl]carbamoy}propan-2-yl)-1H-indole-2-carboxylic acid] | > 10 nM | > 10 nM | 1 to 10 nM | > 10 nM |  |  |  |  |
| CC(NS(=O)(=O)c1ccccc1)c1cccc2c(-c3cc(Cl)cc(Cl)c3)c(C(=O)O)[nH]c12 (centres unmarked) [IC-1, 3-(3,5-Dichlorophenyl)-7-(1-(phenylsulfonamido)ethyl)-1H-indole-2-carboxylic acid] | > 10 nM | > 10 nM | > 10 nM | > 10 nM |  |  |  |  |
| CC(c1cnn(C)c1)c1cccc2c(-c3ccc(CS(C)(=O)=O)c(F)c3)c(C(=O)O)[nH]c12 (centres unmarked) [IC-3, 3-(3-Fluoro-4-((methylsulfonyl)methyl)phenyl)-7-(1-(1-methyl-1H-pyrazol-4-yl)ethyl)-1H-indole-2-carboxylic acid] | > 10 nM | 1 to 10 nM | 1 to 10 nM | > 10 nM |  |  |  |  |
| CC(c1cccs1)c1cccc2c(-c3ccc(CS(C)(=O)=O)c(F)c3)c(C(=O)O)[nH]c12 (centres unmarked) [IC-4, 3-(3-Fluoro-4-((methylsulfonyl)methyl)phenyl)-7-(1-(thiophen-2-yl)ethyl)-1H-indole-2-carboxylic acid] | 1 to 10 nM | 1 to 10 nM | 1 to 10 nM | 1 to 10 nM |  |  |  |  |
| CC(c1cnn(CCCN)c1)c1cccc2c(-c3ccc(CS(C)(=O)=O)c(F)c3)c(C(=O)O)[nH]c12 (centres unmarked) [IC-5, 7-(1-(1-(3-Aminopropyl)-1H-pyrazol-4-yl)ethyl)-3-(3-fluoro-4-((methylsulfonyl)methyl)phenyl)-1H-indole-2-carboxylic acid] | > 10 nM | < 0.1 nM | 0.1 to 1 nM | 1 to 10 nM |  |  |  |  |
| CC(c1cnc(Cl)s1)c1cccc2c(-c3ccc(CS(C)(=O)=O)c(F)c3)c(C(=O)O)[nH]c12 (centres unmarked) [IC-7, 7-(1-(2-Chlorothiazol-5-yl)ethyl)-3-(3-fluoro-4-((methylsulfonyl)methyl)phenyl)-1H-indole-2-carboxylic acid] | 1 to 10 nM | 1 to 10 nM | 0.1 to 1 nM | 1 to 10 nM |  |  |  |  |
| CC(c1nn[nH]n1)c1cccc2c(-c3ccc(CS(C)(=O)=O)c(F)c3)c(C(=O)O)[nH]c12 (centres unmarked) [IC-9, 7-(1-(2H-Tetrazol-5-yl)ethyl)-3-(3-fluoro-4-((methylsulfonyl)methyl)phenyl)-1H-indole-2-carboxylic acid] | > 10 nM | > 10 nM | > 10 nM | > 10 nM |  |  |  |  |
| CC(c1cccc2c(-c3ccc(CS(C)(=O)=O)c(Cl)c3)c(C(=O)O)[nH]c12)n1cc(CCCN)nn1 (centres unmarked) [IC-10, 7-[1-[4-(3-Aminopropyl)triazol-1-yl]ethyl]-3-[3-chloro-4-(methylsulfonylmethyl)phenyl]-1H-indole-2-carboxylic acid] | > 10 nM | < 0.1 nM | 0.1 to 1 nM | > 10 nM |  |  |  |  |
| CC(c1cccc2c(-c3ccc(CS(C)(=O)=O)c(F)c3)c(C(=O)O)[nH]c12)N1CCNCC1 (centres unmarked) [IC-12, 3-(3-Fluoro-4-((methylsulfonyl)methyl)phenyl)-7-(1-(piperazin-1-yl)ethyl)-1H-indole-2-carboxylic acid] |  |  |  |  | < 8.00 | 8.00 to 9.00 | < 8.00 | < 8.00 |
| CC(c1noc(C2CNC(=O)C2)n1)c1cccc2c(-c3ccc(CS(C)(=O)=O)c(F)c3)c(C(=O)O)[nH]c12 (centres unmarked) [IC-63, 3-[3-Fluoro-4-(methylsulfonylmethyl)phenyl]-7-[1-[5-(5-oxopyrrolidin-3-yl)-1,2,4-oxadiazol-3-yl]ethyl]-1H-indole-2-carboxylic acid] | > 10 nM | < 0.1 nM | 1 to 10 nM | > 10 nM |  |  |  |  |
| CC(c1cccc2c(-c3ccc(CS(C)(=O)=O)c(F)c3)c(C(=O)O)[nH]c12)n1cc(CCCNC(=N)N)oc1=O (centres unmarked) [IC-73, 3-(3-Fluoro-4-((methylsulfonyl)methyl)phenyl)-7-(1-(5-(3-guanidinopropyl)-2-oxooxazol-3(2H)-yl)ethyl)-1H-indole-2-carboxylic acid hydrochloride] | > 10 nM | 1 to 10 nM | 0.1 to 1 nM | 1 to 10 nM |  |  |  |  |
| CC(c1cccc2c(-c3ccc(CS(C)(=O)=O)c(F)c3)c(C(=O)O)[nH]c12)n1cc(CCCN(C)C)oc1=O (centres unmarked) [IC-75, 7-(1-(5-(3-(Dimethylamino)propyl)-2-oxooxazol-3(2H)-yl)ethyl)-3-(3-fluoro-4-((methylsulfonyl)methyl)phenyl)-1H-indole-2-carboxylic acid] | > 10 nM | 1 to 10 nM | 0.1 to 1 nM | 1 to 10 nM |  |  |  |  |

The next lines start with results.

| IC50 (IMP-1) | IC50 (VIM-2) | IC50 (NDM-1) | IC50 (VIM-1) | Compound | pIC50 (IMP-1) | pIC50 (VIM-2; pIC50 VIM-2, FC-5 cephalosporin substrate, ranges of obtained pIC50) | pIC50 (NDM-1) | pIC50 (VIM-1; pIC50 VIM-1, FC-5 cephalosporin substrate, ranges of obtained pIC50) |
| --- | --- | --- | --- | --- | --- | --- | --- | --- |
|  | 1 to 10 nM |  | 1 to 10 nM | CC(c1cccc2c(-c3ccc(CS(C)(=O)=O)c(F)c3)c(C(=O)O)[nH]c12)N1CC(CCCN)OC1=O (single isomer, unassigned) [IC-83, 7-(1-(5-(3-Aminopropyl)-2-oxooxazolidin-3-yl)ethyl)-3-(3-fluoro-4-((methylsulfonyl)methyl)phenyl)-1H-indole-2-carboxylic acid] |  |  |  |  |
| > 10 nM | 0.1 to 1 nM | 0.1 to 1 nM | 0.1 to 1 nM | CC(c1cccc2c(-c3ccc(CS(C)(=O)=O)c(F)c3)c(C(=O)O)[nH]c12)N1CC(CCCN)OC1=O (single isomer, unassigned) [IC-84, 7-(1-(5-(3-Aminopropyl)-2-oxooxazolidin-3-yl)ethyl)-3-(3-fluoro-4-((methylsulfonyl)methyl)phenyl)-1H-indole-2-carboxylic acid] |  |  |  |  |
| > 10 nM | > 10 nM | > 10 nM | > 10 nM | C[C@@H](c1cccc2cc(C(=O)O)[nH]c12)N1C[C@]2(C[C@@H](CN)C2)OC1=O [IC-30] |  |  |  |  |
| > 10 nM | 1 to 10 nM | 1 to 10 nM | > 10 nM | C[C@@H](c1cccc2c(-c3cc(O)nc(O)c3)c(C(=O)O)[nH]c12)N1C[C@]2(C[C@@H](CN)C2)OC1=O [IC-31, 3-(2,6-dihydroxypyridin-4-yl)-7-[(1S)-1-[(2r,4r)-2-(aminomethyl)-6-oxo-5-oxa-7-azaspiro[3.4]octan-7-yl]ethyl]-1H-indole-2-carboxylic acid] |  |  |  |  |
| 1 to 10 nM | > 10 nM | > 10 nM | > 10 nM | C[C@@H](c1cccc2c(N3CCS(=O)(=O)CC3)c(C(=O)O)[nH]c12)N1C[C@]2(C[C@@H](CN)C2)OC1=O [IC-40, 7-((S)-1-((2S,4r)-2-(aminomethyl)-6-oxo-5-oxa-7-azaspiro[3.4]octan-7-yl)ethyl)-3-(1,1-dioxidothiomorpholino)-1H-indole-2-carboxylic acid] |  |  |  |  |
| > 10 nM | 1 to 10 nM | 0.1 to 1 nM | 1 to 10 nM | C[C@@H](c1cccc2c(-c3ccc4c(c3)CC(=O)N4)c(C(=O)O)[nH]c12)N1C[C@]2(C[C@@H](CN)C2)OC1=O [IC-41, 7-((S)-1-((2S,4r)-2-(aminomethyl)-6-oxo-5-oxa-7-azaspiro[3.4]octan-7-yl)ethyl)-3-(2-oxoindolin-5-yl)-1H-indole-2-carboxylic acid] |  |  |  |  |
| > 10 nM | 0.1 to 1 nM | 0.1 to 1 nM | 1 to 10 nM | C[C@@H](c1cccc2c(-c3cnc(N)nc3)c(C(=O)O)[nH]c12)N1C[C@]2(C[C@@H](CN)C2)OC1=O [IC-42, 7-((S)-1-((2S,4r)-2-(aminomethyl)-6-oxo-5-oxa-7-azaspiro[3.4]octan-7-yl)ethyl)-3-(2-aminopyrimidin-5-yl)-1H-indole-2-carboxylic acid] |  |  |  |  |
| > 10 nM | 1 to 10 nM | 0.1 to 1 nM | > 10 nM | C[C@@H](c1cccc2c(-c3cn[nH]c3)c(C(=O)O)[nH]c12)N1C[C@]2(C[C@@H](CN)C2)OC1=O [IC-43, 7-((S)-1-((2S,4r)-2-(aminomethyl)-6-oxo-5-oxa-7-azaspiro[3.4]octan-7-yl)ethyl)-3-(1H-pyrazol-4-yl)-1H-indole-2-carboxylic acid] |  |  |  |  |
| > 10 nM | 1 to 10 nM | 1 to 10 nM | > 10 nM | CC(c1cccc2c(-c3ccc(CS(C)(=O)=O)c(F)c3)c(C(=O)O)[nH]c12)n1cc(CCCN)[nH]c1=O (centres unmarked) [IC-64, 7-[1-[5-(3-Aminopropyl)-2-oxo-1H-imidazol-3-yl]ethyl]-3-[3-fluoro-4-(methylsulfonylmethyl)phenyl]-1H-indole-2-carboxylic acid] |  |  |  |  |
